Experiments:
Type in all cases: cell-based
[1] = test system: human T-cell lymphoma Karpas-299 cells; experiment: Growth inhibition test on human T-cell lymphoma Karpas-299 cells (WST-1, % viability); details: test compound 10 μmol/L, 72 hours, cells without test compound = 100%
Protocol: (§1) Five thousand cells of human T-cell lymphoma Karpas-299 were inoculated into each well of a 96-well microplate (manufactured by Nunc Corp.), and using RPMI medium (culture medium) containing 10% FCS, preculturing was performed in a 5% carbon dioxide incubator at 37° C. for 5 hours. A DMSO solution of each test compound prepared in a concentration of 10 mmol/L was diluted with the culture medium to a final concentration of 10 μmol/L, and the diluted solution was added to each well. The individual wells were further cultured in the 5% carbon dioxide incubator at 37° C. for 72 hours. After completion of the culturing, 10 μL of WST-1 labeled mixture (manufactured by Roche Diagnostic Corp.) was added to each well, and culturing was performed in the 5% carbon dioxide incubator at 37° C. for 2 hours. Using a microplate spectrophotometer (SpectraMax 340PC384; manufactured by Nihon Molecular Devices), the absorbance of each well was measured at 450 nm and 655 nm. The value obtained by subtracting the absorbance at 450 nm from the absorbance at 655 nm (absorbance difference) was calculated for each well. The value for cells not incorporated with a test compound was designated as 100%, and the value at a well not containing cells was designated as 0%. By comparing these values with the absorbance difference obtained at the well in which each test compound was added, the cell viability (% viability) after treatment with the test compound was calculated.

[2] = test system: human multiple myeloma NCI-H929 cells; experiment: Growth inhibition test on human multiple myeloma NCI-H929 cells (WST-1, % viability); details: test compound 10 μmol/L, cells without test compound = 100%
Protocol: as §1, with “Ten thousand” for “Five thousand”, “human multiple myeloma NCI-H929” for “human T-cell lymphoma Karpas-299”, “for 24” for “for 5”

[3] = test system: human mammary cancer BT-474 cells; experiment: Growth inhibition test on human mammary cancer BT-474 cells (WST-1, % viability); details: test compound 10 μmol/L, cells without test compound = 100%
Protocol: as §1, with “Four thousand” for “Five thousand”, “human mammary cancer BT-474” for “human T-cell lymphoma Karpas-299”, “using Dulbecco's Modified Eagle's Medium (DMEM)” for “using RPMI medium”, “for 24” for “for 5”

[4] = test system: human renal cancer OS-RC-2 cells; experiment: Growth inhibition test on human renal cancer OS-RC-2 cells (WST-1, % viability); details: test compound 10 μmol/L, 72 hours, cells without test compound = 100%
Protocol: as §1, with “One thousand” for “Five thousand”, “human renal cancer OS-RC-2” for “human T-cell lymphoma Karpas-299”, “using RPMI1640” for “using RPMI”, “for 24” for “for 5”, “spectrophotometer (Model 550;” for “spectrophotometer (SpectraMax 340PC384;”, “by Bio-Rad),” for “by Nihon Molecular Devices),”

[5] = test system: human lung cancer NCI-H596 cells; experiment: Growth inhibition test on human lung cancer NCI-H596 cells (WST-1, % viability); details: test compound 10 μmol/L, cells without test compound = 100%
Protocol: as §1, with “Four thousand” for “Five thousand”, “human lung cancer NCI-H596” for “human T-cell lymphoma Karpas-299”, “using RPMI1640” for “using RPMI”, “for 24” for “for 5”, “spectrophotometer (Model 550;” for “spectrophotometer (SpectraMax 340PC384;”, “by Bio-Rad),” for “by Nihon Molecular Devices),”

Structure (SMILES)	Viability of tumor cells (% viability), Human T-cell lymphoma Karpas-299 cells [1] [%]	Viability of tumor cells (% viability), Human multiple myeloma NCI-H929 cells [2] [%]	Viability of tumor cells (% viability), Human mammary cancer BT-474 cells [3] [%]	Viability of tumor cells (% viability), Human renal cancer OS-RC-2 cells [4] [%]	Viability of tumor cells (% viability), Human lung cancer NCI-H596 cells [5] [%]
CCc1c(O)cc(O)c(C(=O)c2ccc(OC)cc2)c1CC(=O)N(CCO)CCOC [Compound 33]	14	0	13	18	20
CCc1c(O)cc(O)c(C(=O)c2ccc(OC)cc2)c1CC(=O)N1CCC(CO)CC1 [Compound 61]	13	0	12	25	25
CCc1c(O)cc(O)c(C(=O)c2ccc(OC(F)(F)F)cc2)c1CC(=O)N(CCO)CCOC [Compound 88]	16	0	13	17	14
CCc1c(O)cc(O)c(C(=O)c2ccc(OCCN3CCOCC3)c(OC)c2)c1CC(=O)N(CCOC)CCOC.Cl [Compound 139]	14	0	14	21	16
CCc1c(O)cc(O)c(C(=O)c2ccc(O)c(OC)c2)c1CC(=O)N(CCOC)CCOC [Compound 106]	13	0	12	16	12
CCc1c(O)cc(O)c(C(=O)c2ccc(OC)cc2)c1CC(=O)N1CCN(c2ccccc2C#N)CC1 [Compound 17]	16	0	10	20	16
CCc1c(O)cc(O)c(C(=O)c2ccsc2)c1CC(=O)N(CCO)CCOC [Compound 151]	13	0	13	30	28
CCc1c(O)cc(O)c(C(=O)c2ccc(OC)c(OC)c2)c1CC(=O)N1CCN(c2ccccc2)CC1 [Compound 41]	19	0	14	18	12
CCc1c(O)cc(O)c(C(=O)c2ccc(OC)cc2)c1CC(=O)N1CCc2cc(OC)c(OC)cc2C1 [Compound 38]	14	0	13	18	15
CCc1c(O)cc(O)c(C(=O)c2ccc(OC)c(OC)c2)c1CC(=O)N(CCO)CCOC [Compound 56]	14	0	13	18	20
CCc1c(O)cc(O)c(C(=O)c2ccc(OCCCN3CCOCC3)c(OC)c2)c1CC(=O)N(CCOC)CCOC [Compound 149]	14	0	14	20	14
CCc1c(O)cc(O)c(C(=O)c2ccc(OC(F)F)cc2)c1CC(=O)N(CCO)CCOC [Compound 91]	16	0	13	17	14
CCc1c(O)cc(O)c(C(=O)c2ccc(OC)cc2)c1CC(=O)N1CCN(c2ncccn2)CC1 [Compound 32]	15	0	13	17	15
CCc1c(O)cc(O)c(C(=O)c2ccc(SC)cc2)c1CC(=O)N(CCO)CCOC [Compound 95]	15	0	13	18	14

From patent US20090042883A1, “ANTITUMOR AGENT” (KYOWA HAKKOKOGYO CO., priority 2005, published 2009)
